Measured values as given in patent US4080466A, “Pharmaceutical compositions containing 4-hydroxyl-1,3-dithiolan-2-ylidene malonates” (Nihon Nohyaku Co., Ltd., priority 1976, dated 1978).
Entries after “also recorded” stand apart in the source; their conditions may differ.

Tests used:
glucose metabolism [1] = assay: Effect on glucose metabolism; type: in vivo, mice; conditions: 250 mg/kg oral, 6 h before glucose 4.0 g/kg
Procedure: The test compounds dissolved in olive oil and administered orally at the dose of 250 mg/kg to the mice. After 6 hours, 4.0 g/kg of glucose was orally administered. The same amount of glucose was given to the control animals. 0.02 ml of blood was taken from caudal vein of the mice at 30, 60, 90 and 120 min. after glucose administration. Blood sugar was measured by the procedure of Somogyi-Nelson. Number of animals used was 5 to 6 mice for each treatment.

[2] = tested on: acute hepatitis induced by D-galactosamine; assay: Protective Effect on Acute Hepatitis associated with Mesenchymal Reaction and Discrete Lobular Necrosis (D-galactosamine); type: in vivo, rat (SD strain); conditions: 100 mg/kg oral, 6 h before D-galactosamine 600 mg/kg i.p. (+ 300 mg/kg)
Procedure: D-Galactosamine is a compound which induces a discrete lobular necrosis associated with mesenchymal reaction similar to the change observed in human viral hepatitis, so that it is frequently used in producing a model for viral hepatitis.
The compound of this invention or anethol trithion was administered orally to the male rat (SD strain) at the dose of 100 mg/kg. Six hours after it, D-galactosamine was intraperitoneally administered at the dose of 600 mg/kg. Four hours after it, an additional 300 mg/kg was administered intraperitoneally. Eight hours after it, the animals were sacrificed to collect the blood samples. P-GPT activity and triglyceride in the liver were measured to evaluate the effect of the compound of this invention.

acute oral toxicity = conditions: mouse, in vivo, male mice
Source text: Further, these compounds have no detrimental effects on test animals administered therewith, so far as the doses thereof are within an ordinary administration range.

[3] = tested on: acute liver damage induced by allyl alcohol; assay: Protective Effect on Acute Liver Damage associated with Periportal Necrosis (allyl alcohol), BSP test; type: in vivo, mouse (dd-strain); conditions: 100 mg/kg oral, 6 h before allyl alcohol (0.075 mg/kg oral); 24 h
Procedure: The compund of this invention or anethol trithion was orally administered to the male mouse (4 week-old, dd-strain) at the dose of 100 mg/kg. Six hours after it, allyl alcohol was orally administered at the dose of 0.075 mg/kg. Twenty four hours after it, the animals were sacrificed to collect blood samples.

[4] = tested on: fatty liver induced by carbon tetrachloride; assay: Therapeutic Effect on Fatty Liver (carbon tetrachloride); type: in vivo, rats (SD strain); conditions: 10 days; for Degree of fatty liver (histopathological examination): one symbol per animal
Procedure: Methods: […] The treated animals were left for 3 days after the last administration to maximize the manifestation of fatty liver. […] It was orally given everyday for 10 days at the dose of 50 or 250 mg/kg. On the 11th day, the animals were sacrificed. The therapeutic effect was evaluated by determining the content of liquid in the liver (triglyceride and total lipid) and examining the histopathological changes. Triglyceride and total lipid were determined colorimetrically by chromotropic acid method and Bragdon's oxidation method, respectively. Indices for the histopathological change is as follows: […]

glucose metabolism [5] = assay: Effect on glucose metabolism; type: in vivo, mice; conditions: 250 mg/kg oral, 6 h before glucose 4.0 g/kg; 0 min

SMILES	Blood Sugar (glucose metabolism [1]; 30 min)	Blood Sugar (glucose metabolism [1]; 60 min)	Blood Sugar (glucose metabolism [1]; 90 min)	Blood Sugar (glucose metabolism [1]; 120 min)	Triglyceride in liver [2]	p-GPT [2]	LD50 (acute oral toxicity)	BSP (residual quantity) [3]	Total lipid ([4]; 50 mg/kg oral)	Triglyceride ([4]; 50 mg/kg oral)	Degree of fatty liver (histopathological examination) ([4]; 50 mg/kg oral)	Total lipid ([4]; 250 mg/kg oral)	Triglyceride ([4]; 250 mg/kg oral)	Degree of fatty liver (histopathological examination) ([4]; 250 mg/kg oral)	Blood Sugar (glucose metabolism [5])
CC(C)OC(=O)C(C(=O)OC(C)C)=C1SCC(O)S1 (stereo not drawn) [Compound 2, Diisopropyl 4-hydroxy-1,3-dithiolan-2-ylidene malonate]	247 ± 20.2 mg/dL	212 ± 13.1 mg/dL	177 ± 15.5 mg/dL	130 ± 10.8 mg/dL	7.0 ± 0.82 mg/g	73 ± 13 Karmen unit	> 6590 mg/kg	17.1 ± 3.8	82.3 ± 15.1 mg/g-liver	38.6 ± 8.5 mg/g-liver	± ± + ± ± + ±	68.3 ± 10.3 mg/g-liver	21.6 ± 7.3 mg/g-liver	- - ± ± ± ± -	136 ± 12.3 mg/dL
CCOC(=O)C(C(=O)OC(C)C)=C1SCC(O)S1 (stereo not drawn) [Compound 4, Ethyl isopropyl 4-hydroxy-1,3-dithiolan-2-ylidene malonate]									87.6 ± 7.2 mg/g-liver	40.6 ± 8.2 mg/g-liver	+ + + ++; also recorded: ± ± + ± ± ± +	70.3 ± 7.7 mg/g-liver	25.3 ± 4.2 mg/g-liver	± ± ± - - - ±	
